{"source": "patent EP3275863A1", "about": "“COMPOUNDS FOR TREATING CONGENITAL DISORDERS OF GLYCOSYLATION” (Universidad Autónoma de Madrid, priority 2016, dated 2018)", "key": {"p.Arg123Gln mutant": {"biological_target": "T1, p.Arg123Gln mutant (Homo sapiens, UniProt O15305, R123Q)", "T1 construct": "His6 (N); made in house; host or cells: E. coli BL21 Star DE3", "T1 sequence (O15305 1-246 R123Q)": "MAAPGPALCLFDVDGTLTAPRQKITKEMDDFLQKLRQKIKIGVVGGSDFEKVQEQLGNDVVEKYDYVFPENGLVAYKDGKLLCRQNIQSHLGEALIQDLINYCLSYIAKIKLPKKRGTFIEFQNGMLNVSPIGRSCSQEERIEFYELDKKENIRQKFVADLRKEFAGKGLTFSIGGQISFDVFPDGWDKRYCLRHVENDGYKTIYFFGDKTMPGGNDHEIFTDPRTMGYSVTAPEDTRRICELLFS", "assay": "DSF thermal stability of purified homodimeric mutant", "format": "binding", "details": "at both concentrations (40 µM and 80 µM)", "procedure": "(§1) The effect of Compound A on the stability of different PMM2 folding mutants was studied by DSF. The selected mutants were the folding mutants, p.Val44AIa, p.Asp65Tyr, p.Arg162Trp, p.Thr237Met and p.Cys241Ser and the catalytic and folding mutants, p.Arg123Gln and p.Arg141His as previously described. The effect was studied at 40 µM and 80 µM compound concentration over the thermal stability of the purified homodimeric mutants by DSF.\n(§2) In this case, the DSF was performed in a final reaction volume of 50 µl, containing 0.075 mg/ml of pure PMM2 protein in Hepes 20 mM, NaCl 200 mM, SYPRO Orange 5X, 1 µl of the hit compound and 2% DMSO in a LightCycler Multiwell Plate 96 (Roche)."}, "p.Thr237Met mutant": {"biological_target": "T2, p.Thr237Met mutant (Homo sapiens, UniProt O15305, T237M)", "T2 construct": "His6 (N); made in house; host or cells: E. coli BL21 Star DE3", "T2 sequence (O15305 1-246 T237M)": "T1 sequence (O15305 1-246 R123Q) with Q123R, T237M", "assay": "DSF thermal stability of purified homodimeric mutant", "format": "binding", "details": "80µM of the compound", "procedure": "as §1, §2"}}, "note": "Changes are numbered by the printed parent chain.", "data": [{"compound": "O=C(Nc1cccc(Cl)c1)N(c1ccccn1)c1ccccn1", "note": "[Compound A, 3-(3-Chloro-phenyl)-1,1-di-pyridin-2-yl-urea]", "values": [{"measurement": "Tm compared with WT-PMM2 basal Tm", "setting": "p.Arg123Gln mutant", "result": "reached the WT-PMM2 basal Tm"}, {"measurement": "Tm compared with WT-PMM2 basal Tm", "setting": "p.Thr237Met mutant", "result": "reached the WT-PMM2 basal Tm"}]}]}
